Assay results from patent publication US20250002527A1, “STEROID COMPOUND AND CONJUGATE THEREOF” (DUALITY BIOLOGICS (SUZHOU) CO., LTD., priority 2021, published 2025).
“And” between values parts separate entries of the source, which are not always exact repeats. Equal entries are not always repeated.

Assays:
Assay type in all cases: cell-based
glucocorticoid receptor = molecular target: T1, glucocorticoid receptor (Homo sapiens, UniProt P04150); test: Measurement 1 of glucocorticoid receptor reporter gene GRE activity; details: HEK293 transfected with pGL5 and pBIND-GR, 24 hours
T1 construct: expressed in transfected cells; host or cells: HEK293
T1 sequence (P04150 1-777): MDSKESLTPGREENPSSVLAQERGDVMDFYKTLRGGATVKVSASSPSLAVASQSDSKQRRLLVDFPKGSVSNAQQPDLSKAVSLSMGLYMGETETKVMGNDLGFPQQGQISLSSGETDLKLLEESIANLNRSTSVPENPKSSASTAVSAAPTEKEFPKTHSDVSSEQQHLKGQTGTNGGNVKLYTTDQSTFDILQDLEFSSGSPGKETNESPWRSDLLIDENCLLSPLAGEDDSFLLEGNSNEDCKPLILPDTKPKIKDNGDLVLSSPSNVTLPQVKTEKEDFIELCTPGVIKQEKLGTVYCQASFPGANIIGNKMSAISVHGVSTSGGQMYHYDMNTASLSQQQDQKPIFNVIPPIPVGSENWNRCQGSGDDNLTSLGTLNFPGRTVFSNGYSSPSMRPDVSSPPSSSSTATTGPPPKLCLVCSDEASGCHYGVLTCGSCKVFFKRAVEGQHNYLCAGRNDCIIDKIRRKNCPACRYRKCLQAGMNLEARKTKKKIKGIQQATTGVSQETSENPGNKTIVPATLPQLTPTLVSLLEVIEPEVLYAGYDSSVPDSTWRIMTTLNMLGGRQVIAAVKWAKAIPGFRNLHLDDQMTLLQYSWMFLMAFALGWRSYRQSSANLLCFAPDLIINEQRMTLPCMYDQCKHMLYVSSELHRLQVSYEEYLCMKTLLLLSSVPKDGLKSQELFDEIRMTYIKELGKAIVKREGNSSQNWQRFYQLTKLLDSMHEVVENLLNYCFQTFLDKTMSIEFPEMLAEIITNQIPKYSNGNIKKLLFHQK
Description: (§1) HEK293 cells were cultured in DMEM+10% FBS medium in a carbon dioxide incubator humidified at 37° C. at 5% carbon dioxide.
(§2) The prepared transfection mixtures were added to 10 mL of the cell density-adjusted resuspension, mixed well by turning the mixtures upside down, and seeded into a 96-well plate at a volume of 100 μL/well.
(§3) The test plate was detected using the Dual-Glo Luciferase Assay System kit from Promega, and the fluorescence signal of Firefly Luciferase and the fluorescence signal of Renilla Luciferase were read using Enspire, respectively.
The final measurement value was a normalized value “F/R” obtained by dividing the Firefly Luciferase fluorescent signal by the Renilla Luciferase fluorescent signal.
The data were copied and pasted into Excel, and the activation rate was obtained through an equation.
The data were imported into MS Excel and subjected to curve fitting by using XLFit excel add-in version 5.4.0.8 to obtain an EC50 value.
(§4) Y is the agonism and X is the concentration of the compound.

GR = molecular target: T2, GR (Homo sapiens, UniProt P04150); test: GR luciferase reporter gene elution experiment; design: concentration or dose not given beside the values; details: then 24 hours
T2 construct: expressed in transfected cells; host or cells: HEK293
T2 sequence (P04150 1-777): T1 sequence (P04150 1-777)
Description: The compounds of the present application were evaluated for their ability to continue activation upon binding to GR.
as §1
• 1) HEK293 cells were trypsinized, and the HEK293 cell resuspension was adjusted to 200,000 cell/mL in medium (96 well plate: 100 μL/well). • 2) Transfection reagent mixtures were prepared according to the table below, mixed well and left at room temperature for 20 minutes.
as §2, with “• 3) The” for “The”, “μL/well. • 4) The 96-well plate was incubated in a humidified incubator at 37° C. and 5% carbon dioxide for 24 hours.” for “μL/well.”
as §3
• 1) The final measurement value was a normalized value “F/R” obtained by dividing the Firefly Luciferase fluorescent signal by the Renilla Luciferase fluorescent signal. • 2) The data were copied and pasted into Excel, and the activation rate was obtained through an equation.
[formula] • 3) The data were imported into MS Excel and subjected to curve fitting by using XLFit excel add-in version 5.4.0.8 to obtain an EC50 value.
as §4

human PBMC cells = test: TNF-α secretion from PBMC under R848 stimulation (compounds); details: R848 5 μM, 24 hours, mean ± standard deviation
Description: The compounds of the present application were tested for their inhibitory effect on the production of peripheral blood monocytes. The peripheral blood monocytes were treated in vitro with the ligand-drug conjugate at different concentrations, and IFNα and TNFα generated by the peripheral blood monocytes were quantitatively detected after a certain time. The compounds of the present invention were evaluated for in-vitro activity.
The cryopreserved human PBMC cells were resuspended in a complete medium and counted, and the cell suspension was adjusted to 2.5×10*6 cells/mL with the culture medium. After the suspension was centrifuged to collect the cells the next day, the cells were resuspended using fresh culture medium. Test compounds were diluted to 4-fold final concentration in cell culture medium, 50 μL of the compounds were added into a 96-well cell plate, and 100 μL of diluted cells ([…]) were added into each well of the 96-well plate containing the compounds, followed by addition of 50 μL R848 to a final concentration of 5 μM. The cell plate was incubated at 37° C. with 5% CO2 for 24 hours. The supernatant was collected, and the TNF-α and IFN-α concentration levels in the supernatant were detected using an ELISA kit.
TNF-α concentration assay was performed using Dakewe TNF-α ELISA kit (Cat #1117202), 100 μL of the serially-diluted cytokine standard was added into each well, 100 μL of the above supernatant diluted 10-fold was added into each well, and 100 μL of 1× dilution buffer R was added into each blank well. 50 μL of biotinylated antibody working solution was added into each well. After mixing well, the plate was covered with the plate-sealing membrane and incubated at room temperature for 3 hours. The plate was washed for 3 times: the liquid in each well was discarded, and 300 μL of 1× washing buffer working solution was added into each well; after 1 minute of residence, the liquid in the wells was discarded. The procedure was repeated for 3 times. 100 μL of Streptavidin-HRP working solution was added into each well. The plate was covered with the plate-sealing membrane and incubated at room temperature for 20 minutes. The plate was washed for 3 times, 100 μL of TMB liquid was added into each well, and the plate was incubated for 25 minutes at room temperature (18-25° C.) in the dark. The reaction was stopped by adding 100 μL stop solution rapidly to each well. The reading at a wavelength of 450 nm was detected by an M2e instrument within 10 minutes after termination.
The contents of TNF-α and IFN-α were calculated from the OD450 values.

SMILES: C[C@]12C=CC(=O)C=C1CC[C@@H]1[C@@H]2[C@@H](O)C[C@@]2(C)[C@H]1C[C@H]1O[C@@H](c3ccc(Cc4ccc(CO)cc4)cc3)O[C@]12C(=O)CO [Compound 4]
- EC50 (glucocorticoid receptor): 0.04 nM
- Wash off time (Rate of activation %) 15 min (GR; wash off after 15 min): 127.6% and 129.6%
- Wash off time (Rate of activation %) 30 min (GR; wash off after 30 min): 127.0% and 128.5%
- Wash off time (Rate of activation %) 1 h (GR; wash off after 1 h): 164.6% and 106.6%
- Wash off time (Rate of activation %) 2 h (GR; wash off after 2 h): 131.3% and 124.8%
- Wash off time (Rate of activation %) 4 h (GR; wash off after 4 h): 139.9% and 125.3%
- TNF-α secretion (pg/mL) from PBMC under R848 stimulation (human PBMC cells; compound 4 nM): 443.6 pg/mL
- TNF-α secretion (pg/mL) from PBMC under R848 stimulation (human PBMC cells; compound 20 nM): 320 pg/mL
- TNF-α secretion (pg/mL) from PBMC under R848 stimulation (human PBMC cells; compound 100 nM): 356.1 pg/mL
